# How the values were obtained:
# [1] = ND0612-001 dose proportionality, 24 hour continuous subcutaneous infusion; type: in vivo, human; conditions: healthy male subjects; LD (6% w/w)/CD (1.4% w/w) composition, 24 hour subcutaneous infusion at 80-240 μl/h
# Procedure: Subjects were administered with a composition comprising LD (6% w/w)/CD (1.4% w/w) by way of a 24 hour continuous infusion at varying infusion rates: • Group 1:80 μl/h • Group 2:120 μl/h • Group 3:160 μl/h • Group 4:200 μl/h • Group 5:240 μl/h
# Several PK parameters were derived for both LD and CD in the dose proportionality assessment, including AUC (hr*ng/ml), Cmax (ng/ml), C15 (ng/ml), and C24 (ng/mL).
# [2] = ND0612-005a/ND0612-005b plasma carbidopa levels after subcutaneous carbidopa doses; type: in vivo, human; conditions: 60 mg/ml levodopa with 7.5, 6 or 4 mg/ml carbidopa over 24 hours, 17.9, 26.9, 33.6 mg/24 h carbidopa
# Procedure: In a separate clinical trial (ND0612-005a and ND0612-005b, open label design studies), the plasma carbidopa levels were tested in view of the subcutaneous administration of several carbidopa doses. Three formulations, comprising 60 mg/ml levodopa and (a) 7.5 mg/ml; (b) 6 mg/ml; or 4 mg/ml of carbidopa, were administered to three groups of subjects over the course of 24 hours, providing a total of 17.9 mg/24 h carbidopa to each subject in the first group, 26.9 mg/24 h carbidopa to each subject in the second group and 33.6 mg/24 h carbidopa to each subject in the third group.
Compound,"dose proportionality of PK parameters (AUC, Cmax, C15, C24) [1]",carbidopa Cmax dose proportionality [2]
"C[C@@](Cc1ccc(O)c(O)c1)(NN)C(=O)O [CD, carbidopa]",demonstrated dose proportionality,showed clear dose proportionality
"N[C@@H](Cc1ccc(O)c(O)c1)C(=O)O [LD, L-3,4-dihydroxyphenylalanine]",demonstrated dose proportionality,

# From patent US12161612B2, “Methods and compositions for reducing symptoms of Parkinson's disease” (NeuroDerm, Ltd., priority 2023, dated 2024)
